Test results taken from PubChem BioAssay AID328 (DTP/NCI, 2004).
Several values for one entry are separate records, joined by “and”; a condition that tells them apart may be missing. Equal entries are not always repeated. Toxic doses and inconclusive results are not listed.

Tested on: BDF1 mice, P388 leukemia ip, median survival T/C
Assay: NCI In Vivo Anticancer Drug Screen. Data for tumor model P388 Leukemia (intraperitoneal) in B6D2F1 (BDF1) mice
Conditions: endpoint: median survival time, higher = longer survival
Summary of the method: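 Vehicle-dosed animals serve as the reference; survival of compound-dosed, tumour-implanted mice is divided by it.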

[1] = dose: 50.0 mg/kg/injection, schedule: Q01DX009 (ip), vehicle: saline with Tween-80
[2] = dose: 100.0 mg/kg/injection, schedule: Q01DX009 (ip), vehicle: saline with Tween-80
[3] = dose: 200.0 mg/kg/injection, schedule: Q01DX009 (ip), vehicle: saline with Tween-80

For `CCCCCCCCCCCCCCCCCC[n+]1cccc(C(=O)N2CCOCC2)c1`, the T/C (dose: 1.0 mg/kg/injection, schedule: Q01DX009 (ip), vehicle: saline with Tween-80) was 108 % of control, the T/C (dose: 2.0 mg/kg/injection, schedule: Q01DX009 (ip), vehicle: Klucel (hydroxypropylcellulose) (HPC)) was 100 % of control and the T/C (dose: 2.0 mg/kg/injection, schedule: Q01DX009 (ip), vehicle: saline with Tween-80) was 95 % of control. The T/C (dose: 4.0 mg/kg/injection, schedule: Q01DX009 (ip), vehicle: Klucel (hydroxypropylcellulose) (HPC)) was 90 % of control, the T/C (dose: 4.0 mg/kg/injection, schedule: Q01DX009 (ip), vehicle: saline with Tween-80) was 100 % of control and the T/C (dose: 8.0 mg/kg/injection, schedule: Q01DX009 (ip), vehicle: Klucel (hydroxypropylcellulose) (HPC)) was 109 % of control. For the same molecule, the T/C (dose: 8.0 mg/kg/injection, schedule: Q01DX009 (ip), vehicle: saline with Tween-80) was 108 % of control, the T/C (dose: 16.0 mg/kg/injection, schedule: Q01DX009 (ip), vehicle: Klucel (hydroxypropylcellulose) (HPC)) was 104 % of control and the T/C (dose: 16.0 mg/kg/injection, schedule: Q01DX009 (ip), vehicle: saline with Tween-80) was 121 % of control. For the same molecule, the T/C (dose: 25.0 mg/kg/injection, schedule: Q04DX003 (ip), vehicle: Klucel (hydroxypropylcellulose) (HPC)) was 100 % of control, the T/C (dose: 32.0 mg/kg/injection, schedule: Q01DX009 (ip), vehicle: Klucel (hydroxypropylcellulose) (HPC)) was 113 % of control and the T/C (dose: 50.0 mg/kg/injection, schedule: Q04DX003 (ip), vehicle: Klucel (hydroxypropylcellulose) (HPC)) was 109 % of control. For the same molecule, the T/C (dose: 100.0 mg/kg/injection, schedule: Q04DX003 (ip), vehicle: Klucel (hydroxypropylcellulose) (HPC)) was 90 % of control.

`CS/C(=C\c1ccc2cc(C)ccc2[n+]1C)N1CCOCC1` was tested, and the T/C (dose: 1.56 mg/kg/injection, schedule: Q01DX009 (ip), vehicle: saline) was 112 % of control and the T/C (dose: 3.12 mg/kg/injection, schedule: Q01DX009 (ip), vehicle: saline) was 119 % of control.

`O=C(NC(=O)c1c(F)cccc1F)Nc1nc2c(Cl)cccc2s1` was tested, and the T/C [1] was 93 % of control, the T/C [2] was 93 % of control and the T/C [3] was 94 % of control.

For `COc1cccc(/C=N\NC(=O)C(C)SC(C)C(=O)N/N=C/c2cccc(OC)c2)c1` (centres undefined), the T/C [2] was 100 % of control, the T/C [3] was 104 % of control and the T/C (dose: 400.0 mg/kg/injection, schedule: Q01DX009 (ip), vehicle: saline with Tween-80) was 104 % of control.

With `CN(C)[C@@H]1C(=O)C(C(=O)NCN(CCCl)CCCl)=C(O)[C@@]2(O)C(=O)C3=C(O)c4c(O)cccc4[C@@](C)(O)[C@H]3C[C@@H]12` the T/C (dose: 3.12 mg/kg/injection, schedule: Q01DX009 (ip), vehicle: saline with Tween-80) was 104 % of control, the T/C (dose: 6.25 mg/kg/injection, schedule: Q01DX009 (ip), vehicle: Klucel (hydroxypropylcellulose) (HPC)) was 91 % of control and the T/C (dose: 6.25 mg/kg/injection, schedule: Q01DX009 (ip), vehicle: saline with Tween-80) was 100 % of control. The T/C (dose: 9.0 mg/kg/injection, schedule: Q01DX009 (ip), vehicle: saline) was 159 % of control, the T/C (dose: 12.5 mg/kg/injection, schedule: Q01DX009 (ip), vehicle: Klucel (hydroxypropylcellulose) (HPC)) was 108 % of control and the T/C (dose: 12.5 mg/kg/injection, schedule: Q01DX009 (ip), vehicle: saline with Tween-80) was 100 % of control. For the same molecule, the T/C (dose: 14.0 mg/kg/injection, schedule: Q01DX009 (ip), vehicle: saline) was 172 % of control, the T/C (dose: 20.0 mg/kg/injection, schedule: Q04DX003 (ip), vehicle: saline) was 150 % of control and the T/C (dose: 22.0 mg/kg/injection, schedule: Q01DX009 (ip), vehicle: saline) was 161 % of control and 209 % of control. For the same molecule, the T/C (dose: 25.0 mg/kg/injection, schedule: Q01DX009 (ip), vehicle: saline with Tween-80) was 90 % of control and 109 % of control, the T/C (dose: 33.0 mg/kg/injection, schedule: Q01DX009 (ip), vehicle: saline) was 169 % of control and the T/C (dose: 33.0 mg/kg/injection, schedule: Q04DX003 (ip), vehicle: saline with Tween-80) was 163 % of control. The T/C (dose: 44.0 mg/kg/injection, schedule: Q04DX003 (ip), vehicle: saline) was 186 % of control, the T/C (dose: 50.0 mg/kg/injection, schedule: Q01DX009 (ip), vehicle: Klucel (hydroxypropylcellulose) (HPC)) was 163 % of control and the T/C [1] was 86 % of control and 109 % of control. For the same molecule, the T/C (dose: 50.0 mg/kg/injection, schedule: Q01DX009 (ip), vehicle: saline) was 203 % of control and 208 % of control, the T/C (dose: 50.0 mg/kg/injection, schedule: Q04DX003 (ip), vehicle: saline with Tween-80) was 186 % of control and the T/C (dose: 67.0 mg/kg/injection, schedule: Q04DX003 (ip), vehicle: saline) was 196 % of control. For the same molecule, the T/C (dose: 75.0 mg/kg/injection, schedule: Q01DX009 (ip), vehicle: saline) was 211 % of control, the T/C (dose: 75.0 mg/kg/injection, schedule: Q04DX003 (ip), vehicle: saline with Tween-80) was 218 % of control and the T/C [2] was 109 % of control. The T/C (dose: 100.0 mg/kg/injection, schedule: Q04DX003 (ip), vehicle: saline) was 229 % of control and 220 % of control and the T/C (dose: 200.0 mg/kg/injection, schedule: Q04DX003 (ip), vehicle: saline) was 91 % of control.
